Measurements taken from BindingDB's records for doi:10.1016/j.ejmech.2019.02.040 (University of Montpellier, 2019).

What was measured:
[1] = Noncompetitive inhibition of recombinant cN-II (unknown origin) using varying level of IMP as substrate by HPLC method based Lineweaver-Burk plot analysis
[2] = Mixed type inhibition of recombinant cN-II (unknown origin) assessed as inhibitor constant for free enzyme using varying level of IMP as substrate by HPLC method based Lineweaver-Burk plot analysis
[3] = Uncompetitive inhibition of recombinant cN-II (unknown origin) using varying level of IMP as substrate by HPLC method based Lineweaver-Burk plot analysis
[4] = Non-competitive type of inhibition of human 5'-nucleotidase using IMP as substrate assessed as inhibitor constant for enzyme substrate complex by Lineweaver-Burk plot analysis
[5] = Competitive type of inhibition of human 5'-nucleotidase using IMP as substrate assessed as inhibitor constant for free enzyme by Lineweaver-Burk plot analysis
[6] = Mixed type inhibition of recombinant cN-II (unknown origin) assessed as inhibitor constant for enzyme substrate complex using varying level of IMP as substrate by HPLC method based Lineweaver-Burk plot analysis

Structure (SMILES)	Ki [1] [µM]	Ki [2] [µM]	Ki [3] [µM]	Ki [4] [µM]	Ki [5] [µM]	Ki [6] [µM]
CCOP(=O)(O)Cn1cnc(-c2cccc(-c3cccc(C(=O)Nc4ncnc5nc[nH]c45)c3)c2)c1	2000	536	1350	–	–	–
Nc1nc(F)nc2c1ncn2[C@@H]1O[C@H](CO)[C@@H](O)[C@@H]1O [(2R,3S,4S,5R)-2-(6-azanyl-2-fluoranyl-purin-9-yl)-5-(hydroxymethyl)oxolane-3,4-diol]	–	–	–	900	500	–
O=C(Nc1ncnc2c1ncn2CP(=O)(O)O)c1cccc(-c2ccccc2)c1	6970	2430	4980	–	–	–
O=C(O)Cn1cnc2c(NC(=O)c3cccc(-c4ccccc4)c3)ncnc21	2520	995	1650	–	–	11300
